Data taken from patent US20090233307A1, “METHODS FOR DETECTION OF SINGLE STRAND BREAKS IN DNA” (The University of North Carolina at Chapel Hill, priority 2008, published 2009).

Experiments:
[1] = test system: DT40 cells; assay: SSB repair through NAD(P)H depletion, DT40 cells; assay type: cell-based, chicken; conditions: 1 mM MMS for up to 4 hours, DT40 cells
Method: SSB repair capacity was determined by a real-time colorimetric assay that measures intracellular NAD(P)H levels (Tano et al., DNA Repair, 6, 869-875 (2007)). PARP-1 activation during SSB repair leads to NAD^+ consumption, which can be indirectly monitored through NAD(P)H depletion (Nakamura et al., Nucleic Acids Res., 31, e104 (2003)). Briefly, 5×10^3 cells/well were seeded into a 96-well plate. After a 30 minute incubation period, the cells were treated with 1 mM MMS quickly followed by the addition of a dye containing XTT (Sigma) and 1-methoxy PMS (Sigma). For up to 4 hours, the NAD(P)H-dependent conversion of the XTT tetrazolium salt to a yellow colored formazan dye was measured spectrophotometrically. Decreases in intracellular NAD(P)H levels were determined through comparison of values to those of the PBS control. Established methods for detecting SSBs have not been adequately characterized for pH effects on DNA structure and chemistry and also lack a high specificity for SSBs, primarily because of artifactual SSB formation. […] The accumulation of SSBs leads to PARP-1 over-activation and the consumption of NAD+, which is indirectly monitored in living cells through the measurement of intracellular NAD(P)H depletion using tetrazolium salts, such as XTT, during chemical exposure (Tano et al., DNA Repair, 6, 869-875 (2007)). […]

[2] = test system: Pol β null cells; assay: Alkaline gel electrophoresis with or without OTX of DNA from exposed Pol β null cells; assay type: cell-based, chicken; conditions: 1 mM MMS, 1-4 hours
Method: (§1) DT40 and Pol β null cells were seeded into 100 cm dishes and allowed to divide overnight to reach the density of 1×10^6 cells/mL. Cells were exposed to a continuous treatment of 1 mM methyl methanesulfonate (MMS; Aldrich) for up to 4 hours. Control cells received 1× phosphate buffered saline (PBS) for 0.5 hour. After incubation, cells were harvested, washed with chilled 1× PBS, pelleted, and stored at −80° C. until DNA isolation. Using this protocol, DT40 cells were also incubated in the absence of chemical to obtain a stock of untreated DNA.
DNA was extracted using a PureGene® DNA extraction kit (Gentra Systems. Inc.) with modifications as described previously (Nakamura et al., J. Biol. Chem., 275, 5323-5328 (2000)).
An alkaline gel electrophoresis protocol (AGE) (Drouin et al., in: Technologies for Detection of DNA Damage and Mutations (G. P. Pfeifer, ed.). Plenum Press, New York, N.Y., pp. 37-43 (1996)) with modifications was used to assess SSBs and ALSs in DNA from exposed cells. The 0.7% agarose gel was prepared in gel buffer (50 mM NaCl, 1 mM EDTA, pH 7) and deionized water. After forming, the gel was soaked in mild alkaline running buffer (30 mM NaOH, 1 mM EDTA, pH 12.4) for at least 30 minutes. Equal amounts of DNA (3-5 μg) were incubated for 1 hour at 37° C. in the presence or absence of 30 mM OTX (Aldrich) in 50 mM HEPES buffer. […]

[3] = test system: DT40 cells; assay type: cell-based; conditions: chicken, 1 mM
Method: as §1

[4] = test system: isolated, genomic DNA; assay: SSB formation at N7-methylguanine adducts, isolated DNA, NaOH or piperidine denaturation, AGE; conditions: DNA + 1 mM MMS + 30 mM OTX 1 hour
Method: To visualize the conversion of MMS induced N7-methylguanine (N7-meG) adducts into SSBs, the AGE assay described above was modified with a piperidine treatment (Mattes et. al., Biochem. Biophys. Acta 868:71-76 (1986)). Equal amounts of DNA (25 μg) were incubated for 1 hour at 37° C. in the presence of 30 mM OTX (Aldrich) and 1 mM MMS or PBS in 50 mM HEPES buffer (pH 7). Treated DNA was washed and collected using microcon YM-3 centrifugal filter devices (Amicon Bioseparations). The treated DNA was then incubated with alkaline buffer (pH≧12.8) that contained either 100 mM NaOH or 1 M piperidine for 20 minutes at 37° C. This DNA was then washed and collected by centrifugal filter devices, and the concentrations determined by UV. DNA (3-5 μg) from each sample received loading dye and was loaded onto a 0.7% agarose gel prepared as previously described. Electrophoresis, neutralization, staining, and image analysis were performed as described above.
ALSs such as N7-methylguanine (N7-meG), the predominate lesion formed by monofunctional alkylating agents, are generated during MMS exposure (Wyatt et. al., Chem. Res. Toxicol. 19: 1580-1594 (2006)). In the absence of OTX, ALSs other than AP sites may contribute to SSBs detected during AGE. […]

COS(C)(=O)=O [MMS, methyl methanesulfonate]
intracellular NAD(P)H levels [1]: time-dependent decrease in intracellular NAD(P)H levels
SSB accumulation (DNA migration) by OTX-AGE [2]: clear time-dependent increase in DNA migration
AP sites (ASB assay) compared to control [3]: time-dependent, significant (p<0.01 for all time points, student t-test) increase in AP sites
amount of SSBs after NaOH induced DNA denaturation, MMS treated vs control DNA ([4]; 100 mM NaOH 20 minutes): no difference in the amount of SSBs
DNA migration after piperidine treatment ([4]; 1 M piperidine 20 minutes, vs PBS control): notable increase in DNA migration
